The subject of test [1] is virus of mouse encephalomiocarditis. Description: antiviral activity: suppression of cytopathic action of test-virus in L-41 and VERO cell cultures. Format: cell-based. The settings on record: L-41 and VERO cells. On the procedure:
FIG. 7 Antiviral properties of de novo proteins and interferons in cell cultures L41 (human mononuclear leucosis) and VERO (kidney of green simian). The activity of preparations was determined as a minimal concentration leading to a 50% delay of the virus of mouse encephalomiocarditis cytopathic action. The average values of three independent experiments are shown ± the standard deviations.
FIG. 8 Antiviral properties of de novo proteins in the cell cultures L-41 (human mononuclear leucosis) and VERO (kidney of green simian). […] The average values of three independent experiments are shown ± standard deviations.
The average values of three independent experiments are shown ± standard deviations.
Antiviral and cytotoxity properties of obtained proteins. Testing of antiviral activity of the proteins was carried out in vitro monitoring the ability of the preparation to suppress cytopathic action of the test-virus (Ershov F., 1996, Interferon system: norm and pathology, Moscow, Medicine). Two cell lines were used in experiments: cells of human mononuclear leucosis L41 and green simian kidney VERO.
Antiviral properties of synthetic linear peptides. Testing of antiviral activity of the synthetic linear peptides was carried out in vitro monitoring the ability of the preparation to suppress cytopathic action of the test-virus (Ershov F., 1996, Interferon system: norm and pathology, Moscow, Medicine). Two cell lines were used in experiments: cells of human mononuclear leucosis L-41 and green simian kidney VERO.
(Damage to the host cells serves as the signal in cytopathic effect assays.)

The test system of test [2] is human T-lymphoblastoid cell line MT4. Particulars: cited from earlier work.

Entries after “also recorded” stand apart in the source; their conditions may differ.

In the case of “LKEKKYSP-Ser-Ser-LKDRHDF (LKEKKYSPSSLKDRHDF; human interferon alfa2)”, the “antiviral activity (in words)” value in test [1] is given as “demonstration of antiviral activity”. The “antiviral activity compared with human interferon-α2” value in test [1] (minimal concentration giving 50% delay of cytopathic action) was “only one order of magnitude less; also recorded: practically completely reproduces antiviral properties of human interferon-α2”. Take LKDRHDF (human interferon alfa2): in test [1], the “antiviral activity (in words)” value was “demonstration of antiviral activity”.

Regarding “LKEKKYSP (human interferon alfa2) [reference compound]”, the “antiviral activity (in words)” value in test [1] is given as “demonstration of antiviral activity”. In test [2], the “concentrations suppressing proliferation of MT4” value was 10^−9-10^−8 M.

These data come from patent US20060165654A1, “Peptides and recombinant proteins mimicking interferons” (priority 2002, published 2006).
